PubChem BioAssay AID754 (Emory University Molecular Libraries Screening Center, 2007)
Activity calls are given as the source filed them.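 Rule for the calls: active = IC50 for lowering Her2 protein in breast cancer cells at or below a set limit; inactive = IC50 above that limit.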

These compounds were tested on SKBr3 Her2 cytoblot, chemiluminescence, 24 h (assay: reduction of cellular Her2 levels – SKBr3 cells, cytoblot, chemiluminescence, mechanism study for Hsp90 inhibitor project, dose response (AID 754)). Conditions: top dose 10 µM.

Compound | IC50
CC(C)NCCCC(C)Nc1cc(O)cc2cccnc12 (stereo not given) | > 10 µM (inactive)
Nc1cc(N)c2cccnc2c1O | > 10 µM (inactive)
CC(C)NCCCCCNc1cc(O)cc2cccnc12 | > 10 µM (inactive)
Nc1ccc(O)c2ncccc12 | > 10 µM (inactive)
Nc1cc2ccccc2c(O)c1O | > 10 µM (inactive)
NCCCCCNc1cc(O)cc2cccnc12 | > 10 µM (inactive)
CC(CCN(C)C)Nc1cc(O)cc2cccnc12 (stereo not given) | > 10 µM (inactive)
CCC(C)NCCNc1cc(OC)cc2cccnc12 (stereo not given) | > 10 µM (inactive)
Nc1cc(O)cc2cccnc12 | < 0.625 µM
CCN(CC)CCCNc1cc(OC)c(Nc2ccccc2)c2cccnc12 | > 10 µM (inactive)
Nc1cc2c(c(O)c1O)C(=O)c1ccccc1C2=O | > 10 µM (inactive)
CCN(CC)CCCC(C)Nc1cc(O)cc2cccnc12 (stereo not given) | > 10 µM (inactive)
O=[N+]([O-])c1cc(O)cc2cccnc12 | > 10 µM (inactive)

Same assay, conditions: top dose 30 µM

Compound | IC50
C[C@H]1CCC[C@H](O)CCCCCc2cc(O)cc(O)c2C(=O)O1 | 27.9 µM
CCn1nc(-c2ccccc2)nc2c(=O)n(C)c(=O)nc1-2 | 2.73 µM
Oc1ccc(-c2nc(-c3ccc(O)c(O)c3)cs2)cc1 | > 30 µM (inactive)
N#Cc1c(N2CCCC2)nc(N)c2c(N)nc(N3CCCC3)cc12 | > 30 µM (inactive)
Cn1ncnc2c(=O)n(C)c(=O)nc1-2 | < 1.88 µM
CCn1c(CSc2nnc(-c3cccnc3)n2-c2ccccc2C)nc2cc(C(=O)O)ccc21 | 3.14 µM
CCn1c(CSc2nnc3ccccn23)nc2cc(C(=O)O)ccc21 | > 30 µM (inactive)
CCc1cc(-c2[nH]ncc2-c2ccc3c(c2)OCO3)c(O)cc1O | > 30 µM (inactive)
Cc1c(-c2nn(C)c(=O)c3ccccc23)oc2ccc(F)cc2c1=O | > 30 µM (inactive)
COc1cccc2c1C(=O)c1c(O)c3c(c(O)c1C2=O)C[C@@](O)(C(=O)CO)C[C@@H]3O[C@H]1C[C@H](N)[C@H](O)[C@H](C)O1 | > 30 µM (inactive)
COc1cccc2c1C(=O)c1c(O)c3c(c(O)c1C2=O)C[C@@](O)(C(C)=O)C[C@@H]3O[C@H]1C[C@H](N)[C@H](O)[C@H](C)O1 | 29.3 µM
CCn1nc(-c2cccs2)nc2c(=O)n(C)c(=O)nc1-2 | < 1.88 µM
O=C1c2ccccc2-c2onc3ccc(NCCCn4ccnc4)c1c23 | > 30 µM (inactive)
C[C@H]1CCCC(=O)CCCCCc2cc(O)cc(O)c2C(=O)O1 | > 30 µM (inactive)
CC(Cc1ccc(O)c(O)c1)C(C)Cc1ccc(O)c(O)c1 (stereo not given) | > 30 µM (inactive)

Same assay, conditions: top dose 50 µM

Compound | IC50
Nc1ccc(Nc2nc3ccccc3s2)c(O)c1 | > 50 µM (inactive)
Nc1cccc2cc(O)ccc12 | > 50 µM (inactive)
Cc1[nH]c2c(N)cccc2c1C | > 50 µM (inactive)
COc1cc(NC(C)CCCN)c2ncccc2c1 (stereo not given) | > 50 µM (inactive)
COc1cc(NC(C)CCCNC(C)C)c2ncccc2c1 (stereo not given) | > 50 µM (inactive)
COc1cc(NCCN(CC(C)C)CC(C)C)c2ncccc2c1 | > 50 µM (inactive)
Nc1ccc(O)c2ncccc12 | > 50 µM (inactive)
COc1cc(NCCCCN)c2ncccc2c1 | > 50 µM (inactive)
O=[N+]([O-])c1cc(S(=O)(=O)Nc2ccc(F)c(-c3c(O)ccc4c3OCO4)c2)ccc1Cl | > 50 µM (inactive)
CCCC(C)N(CC)CCNc1cc(OC)cc2cccnc12 (stereo not given) | > 50 µM (inactive)
N#Cc1cc(S(=O)(=O)Nc2ccc(F)c(-c3c(O)ccc4c3OCO4)c2)ccc1F | > 50 µM (inactive)
COc1cc(N)c2ncccc2c1 | > 50 µM (inactive)
COc1cc(NC(C)CCCNC(C)C)c2ncccc2c1OC (stereo not given) | > 50 µM (inactive)
COc1cc(NS(=O)(=O)c2ccc([N+](=O)[O-])cc2[N+](=O)[O-])c2ncccc2c1 | > 50 µM (inactive)
CCN(CC)CC(O)c1ccnc2c(O)cccc12 (stereo not given) | > 50 µM (inactive)
COc1cc(NCC(O)CN(CC(C)C)CC(C)C)c2nc(C)ccc2c1 (stereo not given) | > 50 µM (inactive)
CCN(CC)CCCNc1cc(OC)cc2ccc(OC)nc12 | > 50 µM (inactive)
CCC(CC)NCCCNc1cc(OC)cc2cccnc12 | > 50 µM (inactive)
COc1cc(NCCCC(C)N)c2nccc(Cl)c2c1 (stereo not given) | > 50 µM (inactive)
Cc1ccc(S(=O)(=O)Nc2ccc(F)c(-c3c(O)ccc4c3OCO4)c2)cc1 | > 50 µM (inactive)
COc1ccc(Oc2c(OC)cc(NCCCCCNC(C)C)c3ncccc23)cc1 | > 50 µM (inactive)
COc1cc(NCCCN(CC(C)C)CC(C)C)c2ncccc2c1Cl | > 50 µM (inactive)

Same assay, conditions: top dose 60 µM

Compound | IC50
COc1ccc2c(c1-c1cc(NS(=O)(=O)c3cc(Cl)ccc3Cl)ccc1N)OCO2 | > 60 µM (inactive)
COc1ccc2c(c1-c1cc(NS(=O)(=O)c3ccc(C)cc3)ccc1N)OCO2 | > 60 µM (inactive)
N#Cc1cc(S(=O)(=O)Nc2cc(O)cc3cccnc23)ccc1F | 33.8 µM (inactive)
Nc1ccc(NS(=O)(=O)c2ccccc2)c(O)c1 | > 60 µM (inactive)
O=S(=O)(Nc1ccc(Cl)cc1O)c1ccccc1 | > 60 µM (inactive)
O=[N+]([O-])c1ccc(NS(=O)(=O)c2ccccc2)c(O)c1 | > 60 µM (inactive)
Nc1ccc(NS(=O)(=O)c2cccc([N+](=O)[O-])c2)cc1-c1ccccc1O | > 60 µM (inactive)
CCOc1ccc2ccccc2c1-c1cc(NS(=O)(=O)c2ccc(C)cc2)ccc1N | > 60 µM (inactive)
Nc1ccc(NS(=O)(=O)c2cc(Cl)ccc2Cl)cc1-c1ccccc1O | > 60 µM (inactive)
Nc1ccc(NS(=O)(=O)c2ccccc2N)cc1-c1ccccc1O | > 60 µM (inactive)
CC(C)(C)OC(=O)Nc1cccc(NS(=O)(=O)c2cc(Cl)ccc2Cl)c1-c1ccccc1O | 48.2 µM (inactive)
COc1ccc(C2CC(c3ccccc3O)=NN2)cc1OC (stereo not given) | 52.3 µM (inactive)
COc1cc(C2CC(c3ccccc3O)=NN2)ccc1O (stereo not given) | 51 µM (inactive)
COc1ccc(S(=O)(=O)Nc2ccc(N)c(-c3ccccc3O)c2)cc1OC | > 60 µM (inactive)
Cc1ccc(S(=O)(=O)Nc2ccc(O)c(-c3ccccc3O)c2)cc1 | > 60 µM (inactive)
O=S(=O)(Nc1cc(O)cc2cccnc12)c1ccc(F)cc1 | > 60 µM (inactive)
COc1ccc(NS(=O)(=O)c2ccccc2)c(OC)c1 | > 60 µM (inactive)
COc1ccc2c(c1-c1cc(NS(=O)(=O)c3cccc(N)c3)ccc1N)OCO2 | > 60 µM (inactive)
O=S(=O)(Nc1ccc(O)c(-c2ccccc2O)c1)c1cc(Cl)ccc1Cl | > 60 µM (inactive)
O=[N+]([O-])c1cccc(S(=O)(=O)Nc2ccc(O)c(-c3ccccc3O)c2)c1 | > 60 µM (inactive)
CCOc1ccc2ccccc2c1-c1cc(NS(=O)(=O)c2cc(Cl)ccc2Cl)ccc1NC(=O)OC(C)(C)C | > 60 µM (inactive)
COc1ccc2c(c1-c1cc(NS(=O)(=O)c3cccc([N+](=O)[O-])c3)ccc1N)OCO2 | > 60 µM (inactive)
CCOc1ccc2ccccc2c1-c1cc(NS(=O)(=O)c2cc(Cl)ccc2Cl)ccc1N | > 60 µM (inactive)
COc1ccc(S(=O)(=O)Nc2ccc(O)c(-c3ccccc3O)c2)cc1OC | > 60 µM (inactive)
Nc1cccc(S(=O)(=O)Nc2ccc(N)c(-c3ccccc3O)c2)c1 | > 60 µM (inactive)
CCOc1ccc2ccccc2c1-c1cc(NS(=O)(=O)c2ccc(OC)c(OC)c2)ccc1N | > 60 µM (inactive)
Cc1ccc(S(=O)(=O)Nc2ccc(N)c(-c3ccccc3O)c2)cc1 | > 60 µM (inactive)
NCc1cc(S(=O)(=O)Nc2cc(O)cc3cccnc23)ccc1F | 16.1 µM
Nc1ccc(NS(=O)(=O)c2ccccc2[N+](=O)[O-])cc1-c1ccccc1O | > 60 µM (inactive)
Nc1cccc(S(=O)(=O)Nc2ccc(O)c(-c3ccccc3O)c2)c1 | > 60 µM (inactive)
